The assay deals with mitochondrial Na+/Ca2+ exchanger. Description: fura-2 [Ca2+]i plateau after depolarization in intact neurons. The format is cell-based, Aquarana catesbeiana.

Turning to `O=C1CSC(c2ccccc2Cl)c2cc(Cl)ccc2N1` (stereo not shown) [CGP, CGP 37157], the IC50 is approximately 0.56 µM.

For the origin of these results see publication PMC2217215 (The Journal of General Physiology, 2000).
